# Laboratory results reported in article PMC9516332 (Frontiers in Oncology, 2022).
# Read-outs that look alike come from different tables or passages of the source.
# Tested on: 134 cancer cell lines
# Assay: Cell viability assay (ATPlite, 72 hours), IC50 on cancer cell line panel
compound,measurement,setting,value
CCCS(=O)(=O)Nc1ccc(F)c(C(=O)c2c[nH]c3ncc(-c4ccc(Cl)cc4)cc23)c1F [vemurafenib],IC50,"Homo sapiens, MOLT-4, read-out: IC50 in cell proliferation assay, MOLT-4 cell line",30.6 µM
same,IC50,"Homo sapiens, MV4-11, read-out: IC50 in cell proliferation assay, MV4-11 cell line (FLT3 ITD)",31.2 µM
same,IC50,"Homo sapiens, MeWo, read-out: IC50 in cell proliferation assay, MeWo cell line",> 31.6 µM
same,IC50,"Homo sapiens, NCCIT, read-out: IC50 in cell proliferation assay, NCC-IT cell line",25.5 µM
same,IC50,"Homo sapiens, NCI-H82, read-out: IC50 in cell proliferation assay, cell line NCI-H82",22.8 µM
same,IC50,"Homo sapiens, NCI-H460, read-out: IC50 in cell proliferation assay, NCI-H460 cell line",26.9 µM
same,IC50,"Homo sapiens, NCI-H661, read-out: IC50 in cell proliferation assay, NCI-H661 cell line",> 31.6 µM
same,IC50,"Homo sapiens, NCI-H716, read-out: IC50 in cell proliferation assay, cell line NCI-H716 (FGFR2-COL14A1)",> 31.6 µM
same,IC50,"Homo sapiens, NCI-H1650, read-out: IC50 in cell proliferation assay, NCI-H1650 cell line (EGFR exon19del)",> 31.6 µM
same,IC50,"Homo sapiens, NCI-H1975, read-out: IC50 in cell proliferation assay, NCI-H1975 cell line (EGFR p.L858R + p.T790M)",> 31.6 µM
same,IC50,"Homo sapiens, NCI-H2228, read-out: IC50 in cell proliferation assay, NCI-H2228 cell line (EML4-ALK)",> 31.6 µM
same,IC50,"Homo sapiens, OVCAR-3, read-out: IC50 in cell proliferation assay, cell line OVCAR-3",> 31.6 µM
same,IC50,"Homo sapiens, PFSK-1, read-out: IC50 in cell proliferation assay, cell line PFSK-1",> 31.6 µM
same,IC50,"Homo sapiens, RL95-2, read-out: IC50 in cell proliferation assay, cell line RL95-2 (EGFR p.A289V)",> 31.6 µM
same,IC50,"Homo sapiens, RPMI-7951, read-out: IC50 in cell proliferation assay, cell line RPMI-7951 (BRAF p.V600E)",15.7 µM
same,IC50,"Homo sapiens, RS4-11, read-out: IC50 in cell proliferation assay, cell line RS4;11",> 31.6 µM
same,IC50,"Homo sapiens, Rec1, read-out: IC50 in cell proliferation assay, cell line REC-1",8.15 µM
same,IC50,"Homo sapiens, SHP77, read-out: IC50 in cell proliferation assay, cell line SHP-77",> 31.6 µM
same,IC50,"Homo sapiens, SK-BR-3, read-out: IC50 in cell proliferation assay, cell line SK-BR-3 (ERBB2 amplification)",> 31.6 µM
same,IC50,"Homo sapiens, SK-N-AS, read-out: IC50 in cell proliferation assay, cell line SK-N-AS",> 31.6 µM
same,IC50,"Homo sapiens, SK-N-FI, read-out: IC50 in cell proliferation assay, cell line SK-N-FI",> 31.6 µM
same,IC50,"Homo sapiens, SK-N-MC, read-out: IC50 in cell proliferation assay, cell line SK-N-MC",> 31.6 µM
same,IC50,"Homo sapiens, SK-N-SH, read-out: IC50 in cell proliferation assay, cell line SK-N-SH (ALK p.F1174L)",> 31.6 µM
same,IC50,"Homo sapiens, SNU-5, read-out: IC50 in cell proliferation assay, cell line SNU-5 (MET amplification)",31.4 µM
same,IC50,"Homo sapiens, SNU-16, read-out: IC50 in cell proliferation assay, cell line SNU-16 (FGFR2 amplification)",> 31.6 µM
same,IC50,"Homo sapiens, SNU-C2B, read-out: IC50 in cell proliferation assay, cell line SNU-C2B (EGFR p.R165Q)",> 31.6 µM
same,IC50,"Homo sapiens, SU-DHL-1, read-out: IC50 in cell proliferation assay, cell line SU-DHL-1 (NPM1-ALK)",23.5 µM
same,IC50,"Homo sapiens, SU-DHL-6, read-out: IC50 in cell proliferation assay, cell line SU-DHL-6",> 31.6 µM
same,IC50,"Homo sapiens, SUP-T1, read-out: IC50 in cell proliferation assay, cell line SUP-T1",> 31.6 µM
same,IC50,"Homo sapiens, SW48, read-out: IC50 in cell proliferation assay, cell line SW48 (EGFR p.G719S)",> 31.6 µM
same,IC50,"Homo sapiens, SW480, read-out: IC50 in cell proliferation assay, cell line SW480",> 31.6 µM
same,IC50,"Homo sapiens, SW626, read-out: IC50 in cell proliferation assay, cell line SW626",> 31.6 µM
same,IC50,"Homo sapiens, SW780, read-out: IC50 in cell proliferation assay, cell line SW780 (FGFR3-BAIAP2L1)",> 31.6 µM
same,IC50,"Homo sapiens, SW837, read-out: IC50 in cell proliferation assay, cell line SW837",> 31.6 µM
same,IC50,"Homo sapiens, SW872, read-out: IC50 in cell proliferation assay, cell line SW872 (BRAF p.V600E)",1.15 µM
same,IC50,"Homo sapiens, SW900, read-out: IC50 in cell proliferation assay, cell line SW900",26.7 µM
same,IC50,"Homo sapiens, SW948, read-out: IC50 in cell proliferation assay, cell line SW948",> 31.6 µM
same,IC50,"Homo sapiens, SW982, read-out: IC50 in cell proliferation assay, cell line SW982 (BRAF p.V600E)",22.3 µM
same,IC50,"Homo sapiens, SW-620, read-out: IC50 in cell proliferation assay, cell line SW620",> 31.6 µM
same,IC50,"Homo sapiens, T98G, read-out: IC50 in cell proliferation assay, cell line T98G",19.1 µM
same,IC50,"Homo sapiens, TCC-SUP, read-out: IC50 in cell proliferation assay, cell line TCCSUP",> 31.6 µM
same,IC50,"Homo sapiens, THP-1, read-out: IC50 in cell proliferation assay, cell line THP-1",> 31.6 µM
same,IC50,"Homo sapiens, U2OS, read-out: IC50 in cell proliferation assay, cell line U2OS",> 31.6 µM
same,IC50,"Homo sapiens, U-87 MG, read-out: IC50 in cell proliferation assay, cell line U-87MG ATCC",> 31.6 µM
same,IC50,"Homo sapiens, U-118-MG, read-out: IC50 in cell proliferation assay, cell line U-118MG",> 31.6 µM
same,IC50,"Homo sapiens, UMUC3, read-out: IC50 in cell proliferation assay, cell line UM-UC-3",> 31.6 µM
same,IC50,"Hs766T, read-out: IC50 in cell proliferation assay, Hs 766T cell line",> 31.6 µM
same,IC50,"L-82, read-out: IC50 in cell proliferation assay, L-82 cell line (NPM1-ALK)",26.8 µM
same,IC50,"Rh30, read-out: IC50 in cell proliferation assay, cell line Rh30",> 31.6 µM
same,IC50,"read-out: IC50 in cell proliferation assay, 11-18 cell line (EGFR p.L858R)",> 31.6 µM
same,IC50,"read-out: IC50 in cell proliferation assay, Hs 852.T cell line",> 31.6 µM
same,IC50,"read-out: IC50 in cell proliferation assay, JAR cell line",14.7 µM
same,IC50,"read-out: IC50 in cell proliferation assay, cell line 5637",25.1 µM
same,IC50,"read-out: IC50 in cell proliferation assay, cell line A-388",> 31.6 µM
same,IC50,"read-out: IC50 in cell proliferation assay, cell line DB",24.5 µM
same,IC50,"read-out: IC50 in cell proliferation assay, cell line DEL (NPM1-ALK)",> 31.6 µM
same,IC50,"read-out: IC50 in cell proliferation assay, cell line ES-2 (BRAF p.V600E)",2.33 µM
same,IC50,"read-out: IC50 in cell proliferation assay, cell line PA-1",15.7 µM
same,IC50,"read-out: IC50 in cell proliferation assay, cell line PC-3",> 31.6 µM
same,IC50,"read-out: IC50 in cell proliferation assay, cell line RD",> 31.6 µM
same,IC50,"read-out: IC50 in cell proliferation assay, cell line RKO (BRAF p.V600E)",3.08 µM
same,IC50,"read-out: IC50 in cell proliferation assay, cell line RL",24.8 µM
same,IC50,"read-out: IC50 in cell proliferation assay, cell line RT-4 (FGFR3-TACC3)",> 31.6 µM
same,IC50,"read-out: IC50 in cell proliferation assay, cell line T24",30.7 µM
same,IC50,"read-out: IC50 in cell proliferation assay, cell line TT (RET p.C634W)",> 31.6 µM
same,IC50,"read-out: IC50 in cell proliferation assay, cell line VA-ES-BJ",> 31.6 µM
